Structures are written as SMILES. Read-outs that look alike come from different tables or passages of the source.

Consider one molecule from US20100075360A1, “UV BASED CELL VIABILITY AS AN INDICATOR OF SUN PROTECTION FACTOR AND METHODS OF MEASUREMENT THEREOF” (priority 2008, published 2010).

Series [1] concerns Swiss 3T3 fibroblast cells. Put plainly: Percentage of UV protection in Swiss 3T3 fibroblast cells (NRU staining). It is filed as cell-based, mouse. The settings on record: UV B 5 minutes. The protocol: The unexposed region of the plate was covered by aluminum foil. […] The percentage of UV protection was calculated with respect to unexposed cells.
The test system of series [2] is Swiss 3T3 fibroblast cells.
Procedure: Swiss 3T3 Mouse fibroblast cells and HaCAT Human keratinocytes were obtained from ATCC and cultured in DMEM medium supplemented with 10% FBS. The confluent cultures are harvested by trypsinization and expanded during two more passages before they were used for the experiments. Medium and other culture components were renewed after 48-72 h. All cell cultures were maintained in a humidified atmosphere at 37° C. in 95% air and 5% CO2.
UV lamp of 14.7 W, 0.3 A, 55V with an intensity of 33.3 μW/cm^2 from Sankyo Denki Co., Ltd.
The neutral red (NR) uptake assay: The NR cytotoxicity assay procedure is a cell survival/viability chemosensitivity assay, based on the ability of viable cells to incorporate and bind neutral red, a supravital dye. NR is a weak cationic dye that readily penetrates cell membranes by non-ionic diffusion, accumulating intracellularly in lysosomes, where it binds with anionic sites in the lysosomal matrix. Alterations of the cell surface or the sensitive lysosomal membrane lead to lysosomal fragility and other changes that gradually become irreversible. Such changes brought about by UV exposure result in a decreased uptake and binding of NR. It is thus possible to distinguish between viable, damaged, or dead cells, which are the basis of this assay. The dye taken up by the cells is subsequently extracted and measured. The dye was dissolved in distilled water at a concentration of 0.5 mg/100 μl. 80 μl of this stock solution was dissolved in 15 ml of pre warmed DMEM medium. The developer solution consists of 25 ml of water, 24.5 ml of ethanol and 0.5 ml of glacial acetic acid. The NRU dye and the developer solutions are to be made fresh before use. After UV exposure and consequent incubation for 72 hrs, the culture medium is replaced with NRU dye and incubated for 3 hrs at 37° C., after which the dye is washed off thrice with PBS. The dye is dissolved in 100 μl of developer solution and incubated at RT for 20 min. The OD was determined at 492 nm using a microplate reader.
Swiss 3T3 fibroblasts were plated in a 96 well micropipette at a seeding density of 3000 cells per well. […] After exposure, the cells were incubated in a CO2 incubator for 48 hrs and developed by the NRU staining technique to analyze the cell viability. The SPF of 1.25% OMC was determined with respect to the untreated cells.

As for `CCCCC(CC)COC(=O)C=Cc1ccc(OC)cc1` (stereo not shown) [OMC, Octyl methoxy cinnamate], the “% UV protection” value in series [1] (0.15% OMC in culture medium, vs unexposed cells) came to 56%; in series [1] (0.31% OMC in culture medium), 71%; in series [1] (0.62% OMC in culture medium), 77%; in series [1] (1.25% OMC in culture medium) it was 90%. In addition, the “minimal cytotoxic dose (MCDp) for protected cells” value in series [2] (1.25% OMC) turned out to be 0.144 J/cm^2; in series [2] (7% OMC), 0.54 J/cm^2. Further, the “% UV toxicity” value in series [2] (1.25% OMC, UV dosage 0.0072 J/cm^2) was found to be 0%; in series [2] (1.25% OMC, UV dosage 0.0216 J/cm^2), 0%; in series [2] (1.25% OMC, UV dosage 0.036 J/cm^2), 0%; in series [2] (1.25% OMC, UV dosage 0.0504 J/cm^2) it was 0%; in series [2] (1.25% OMC, UV dosage 0.072 J/cm^2), 0%; in series [2] (1.25% OMC, UV dosage 0.216 J/cm^2), 39.62%. Moreover, the “% UV toxicity” value in series [2] (7% OMC, UV dosage 0.0072 J/cm^2) is 0%; in series [2] (7% OMC, UV dosage 0.0216 J/cm^2), 0%; in series [2] (7% OMC, UV dosage 0.036 J/cm^2), 0%; in series [2] (7% OMC, UV dosage 0.0504 J/cm^2), 0%; in series [2] (7% OMC, UV dosage 0.072 J/cm^2), 0%; in series [2] (7% OMC, UV dosage 0.18 J/cm^2) it was 0%. The “% UV toxicity” value in series [2] (7% OMC, UV dosage 0.432 J/cm^2) amounted to 0%; in series [2] (7% OMC, UV dosage 0.54 J/cm^2), 7%; in series [2] (7% OMC, UV dosage 0.648 J/cm^2), 9%. The “SPF (MCDp/MCDu)” value in series [2] (7% OMC, MCDu 0.0216 J/cm^2) was found to be 25.
